Patent publication US10556926B2, “Synthetic artificial peptides with antimicrobial effect” (priority 2014, dated 2020)
No end group written: not given here.

Tests used:
E. coli DH5α = conditions: DH5α, 18 h
Protocol: (§1) The minimum inhibitory concentration (MIC) of the peptides was carried out by way of example against gram(−) E. coli DH5α (and gram(+) Staphylococcus xylosus (both Deutsche Sammlung von Mikroorganismen and Zellkulturen, DSMZ) in a standardized microdilution method according to the general guidelines of the CLSI (Clinical and Laboratory Standards Institute 2006) and EUCAST (European Committee for Antimicrobial Susceptibility Testing of the European Society of Clinical Microbiology and Infectious Diseases 2003) with slight adaptations to the investigation of cationic antimicrobial peptides (Wiegand et al. 2008). The bacteria cells were cultivated in Mueller-Hinton-Boullion (MHB) to an optical density of 0.4 to 0.6 at 600 nm wavelength, corresponding to about 4·10^8 bacteria per ml. Then, the bacteria cultures were diluted to a bacteria concentration of about 1·10^5 bacteria per ml in sterile MHB. Using the peptides, series of 2-fold dilutions starting at 128 μM to the smallest dilution of 0.5 μM in MHB were prepared. The peptide dilutions were mixed with the dilute bacteria cultures in a […] in the chambers of a 96-well polypropylene microtiter plate (Starlab, Hamburg, Germany), so that the peptides were present in an end concentration between 64 μM and 0.25 μM at a bacteria concentration of 5·10^4 bacteria/ml. Sterile MHB served as negative control, and the positive control used as the corresponding bacteria concentration in MHB without the addition of peptide. The microtiter plates were incubated for 18 hours at 37° C. with shaking at 120 rpm in a climatically controlled chamber. After the incubation, the bacteria concentration was determined by renewed absorption measurement at a wavelength of 600 nm.

Staphylococcus xylosus = conditions: 18 h
Protocol: as §1

[1] = system: human histiocytic lymphoma cell line U937; assay: Cytotoxicity, direct membrane damage (CytoTox 96), LD50; format: cell-based; conditions: U937, two hours at 37° C., 0.25-64 μM
Protocol: The direct membrane damage was investigated with the help of the CytoTox 96 Non-Radioactive Cytotoxicity Assay (Promega, Mannheim, Germany). For this purpose, the cells were sedimented at 100 g for ten minutes at 4° C., and 50 μl of the resulting culture supernatant were added to 50 μl of the CytoTox substrate mix. After an incubation time of 30 minutes in the dark at room temperature, 50 μl of the CytoTox stopping solution were added to the sample and the absorption was measured at 490 nm. To determine the LD50 value, the measurement value of the negative control was deducted from the absorption values and divided by the measurement value of the permeabilization control. The calculated values were plotted graphically against the peptide concentration and fitted using the Origin pro 8.1 G Software according to a sigmoidal model and the LD50 values were ascertained from this. The calculation was carried out analogously to example 5 by reference to the solution of equation 5.1 for the case y=50, where y in this case corresponds to the relative cytotoxicity in percent and x corresponds to the peptide concentration in μM. Representative graphical evaluations of LD50 values are shown in FIG. 6 by reference to the measurement results for the reference peptides BMAP-27, protamine and KL-helix, and also the peptide O1 according to the invention.

[2] = system: human histiocytic lymphoma cell line U937; assay: Long-term growth inhibition, minimum toxic concentration (MTC)
Protocol: The cytotoxic potential of the antimicrobial peptides was determined by way of example by reference to the human histiocytic lymphoma cell line U937 (DSMZ). The influence of the peptides on the permeability of the cell membrane and their longer-term growth-inhibiting effect was investigated. 15 ml of RPMI 1640 medium with 2 mM glutamine and 10% FCS (Biochrom, Berlin, Germany) were inoculated with 1·10^5 cells per ml and cultivated for three days at 37° in T75 cell culture bottles (TPP, Trasadingen, Switzerland) with constant gassing with 5% CO2 in a climatically controlled chamber. The medium was admixed with 10 U/ml penicillin and […] streptomycin (both AppliChem, Darmstadt, Germany) to avoid bacterial contaminations, with no further antibiotics being added during the subsequent recultivation. Before each experiment, the cells were washed by centrifugation at 100 g for five minutes and subsequent resuspension in RPMI 1640 medium with 2 mM glutamine and 10% FCS in each case two times and adjusted to a concentration of 1·10^5 cells per ml. Finally, in each case 100 μl of the U937 cells were transferred to the reaction chambers of a sterile 96-well polypropylene microtiter plate and admixed with in each case 100 μl of a prediluted antimicrobial peptide in RPMI 1640 medium without antibiotic addition, such that end concentrations of in each case 5·10^4 cells per ml at peptide concentrations between 0.25 μM and 64 μM were present. The negative control used was samples without antimicrobial peptide, while Triton X-100 (AppliChem) was used in an end concentration of 5% as positive control for the permeabilization. The samples were cultivated for two hours at 37° C. and with continuous gassing with 5% CO2 in a climatically controlled chamber. Then, in each case 100 μl of each sample were removed and transferred to new sterile microtiter plates for determining the direct membrane damage. The remaining 100 μl of the samples were cultivated for at least four further days.
For this purpose, 10 μl of lysing solution were added to in each case 100 μl of cell suspension and incubated for 60 minutes at 37° C. Then, the cell culture supernatants were investigated as described above. The lowest peptide concentration at which complete suppression of the cell growth was established after four days was stipulated as the minimum toxic concentration (MTC).

human cell line U937 = assay: Mixed culture experiment (bacterially contaminated cell culture), eukaryotic cells; format: cell-based; conditions: 25 and 50 μM peptide, two hours, with S. xylosus
Protocol: Destruction of the bacteria membranes by the antimicrobial peptides was investigated in a flow cytometric method with the help of a living/dead staining method in combination with an internal calibration and counting system. For this purpose, SYBR Green I (Sigma-Aldrich) was used as total staining and propidium iodide (Sigma-Aldrich) was used as contrast staining for membrane-damaged bacteria. […] The flow analysis was carried out on a Cytomics FC500 Instrument (Beckmann Coulter, Munich, Germany) equipped with an argon laser (488 nm) and the corresponding emission filters for SYBR Green I (525 nm) and propidium iodide (620 nm). […] Then, the mixture was incubated for 10 min in the dark at room temperature and then measured by flow cytometry. The number of events in each gate was captured and evaluated using the CXP Analyses 2.2 Software. The total number of living and dead bacteria was calculated. […]
The ability of the antimicrobial peptides to be used as a therapeutic active ingredient was investigated by reference to its selective antimicrobial properties in model mixed culture experiments. […] Then, the mixed cell cultures were stained and measured by flow cytometry as described in example 3, the measurement scale being adapted to the measurement of the larger eukaryotic cells.

KKKIIIIIIKKK [O1]
MIC E. coli (E. coli DH5α): 8 µM | MIC S. xylosus (Staphylococcus xylosus): 0.5 µM | Toxicity LD50 [1]: >64 µM | Toxicity MTC (minimum toxic concentration) [2]: >64 µM | Effect on eukaryotic U937 cells in mixed culture (human cell line U937): remain uninfluenced
